Assay results published in patent US20110230481A2, “DERIVATIVES OF TETRABROMOBENZIMIDAZOLE, A PROCESS FOR THE PREPARATION THEREOF, A PHARMACEUTICAL COMPOSITION COMPRISING THE SAME, A METHOD OF USING THE SAME, A METHOD FOR MODULATING OR REGULATING SERINE/THREONINE KINASES, AND SERINE/THREONINE KINASES MODULATING AGENT” (SELVITA S.A., priority 2009, published 2011).

Experiments:
Assay in all cases: KINOMEscan Max
Assay type in all cases: binding
PIK3CA(E545A) = target: T1, PIK3CA(E545A) (Homo sapiens, UniProt P42336, E545A)
T1 construct: purchased Ambit Kinomescan (contract screening)
How it was run: (§1)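 Binding was measured by competition: compounds were tested for their ability to displace DNA-tagged kinases from an immobilized ligand directed at the active site, with quantitative PCR of the tag as read-out.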

PRKCI = target: T2, PRKCI (Homo sapiens, UniProt P41743)
T2 construct: DNA tag (qPCR read-out)
How it was run: as §1

[1] = target: T3, ABL1(F317I)-nonphosphorylated (Homo sapiens, UniProt P00519, F317I)
T3 construct: purchased Ambit (KINOMEscan Max service)
How it was run: as §1

CDC2L1 = target: T4, CDC2L1 (Homo sapiens, UniProt P21127)
T4 construct: DNA tag (qPCR label); purchased Ambit Kinomescan (contract screening)
How it was run: as §1

ASK2 = target: T5, ASK2 (Homo sapiens, UniProt O95382)
T5 construct: DNA tag (qPCR read-out)
How it was run: as §1

NEK4 = NEK4 (Homo sapiens, UniProt P51957)
How it was run: as §1

BRAF(V600E) = BRAF(V600E) (Homo sapiens, UniProt P15056, V600E)
How it was run: as §1

HIPK2 = target: T6, HIPK2 (Homo sapiens, UniProt Q9H2X6)
T6 construct: DNA tag (qPCR read-out); purchased Ambit Kinomescan
How it was run: as §1

SNRK = target: T7, SNRK (Homo sapiens, UniProt Q9NRH2)
T7 construct: DNA tag (qPCR read-out)
How it was run: as §1

FLT3(N841I) = target: T8, FLT3(N841I) (Homo sapiens, UniProt P36888, N841I)
T8 construct: purchased Ambit (KINOMEscan Max service)
How it was run: as §1

ERBB3 = target: T9, ERBB3 (Homo sapiens, UniProt P21860)
T9 construct: purchased Ambit (KINOMEscan Max service)
How it was run: as §1

ADCK4 = target: T10, ADCK4 (Homo sapiens, UniProt Q96D53)
T10 construct: DNA tag (qPCR read-out)
How it was run: as §1

NDR2 = NDR2 (Homo sapiens, UniProt Q9Y2H1)
How it was run: as §1

TRKC = TRKC (Homo sapiens, UniProt Q16288)
How it was run: as §1

PRKD3 = target: T11, PRKD3 (Homo sapiens, UniProt O94806)
T11 construct: DNA tag (qPCR read-out)
How it was run: as §1

PIK3CG = target: T12, PIK3CG (Homo sapiens, UniProt P48736)
T12 construct: purchased Ambit Kinomescan (contract screening)
How it was run: as §1

FGFR3 = target: T13, FGFR3 (Homo sapiens, UniProt P22607)
T13 construct: purchased Ambit (KINOMEscan Max service)
How it was run: as §1

p38-beta = p38-beta (Homo sapiens, UniProt Q15759)
How it was run: as §1

[2] = target: ABL1(Q252H)-nonphosphorylated (Homo sapiens, UniProt P00519, Q252H)
How it was run: as §1

[3] = target: T14, RPS6KA4(Kin.Dom.1-N-terminal) (Homo sapiens, UniProt O75676)
T14 construct: RPS6KA4(Kin.Dom.1-N-terminal); DNA tag (qPCR read-out)
T14 sequence (O75676 33-301 limits assumed): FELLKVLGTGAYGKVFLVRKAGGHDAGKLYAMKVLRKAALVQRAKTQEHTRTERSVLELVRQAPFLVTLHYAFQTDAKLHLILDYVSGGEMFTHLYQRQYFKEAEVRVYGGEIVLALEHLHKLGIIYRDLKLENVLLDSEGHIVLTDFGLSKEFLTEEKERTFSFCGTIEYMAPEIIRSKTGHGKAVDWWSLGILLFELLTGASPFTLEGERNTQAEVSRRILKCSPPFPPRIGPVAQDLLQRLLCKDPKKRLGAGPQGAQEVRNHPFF
How it was run: as §1

HIPK3 = target: T15, HIPK3 (Homo sapiens, UniProt Q9H422)
T15 construct: DNA tag (qPCR read-out); purchased Ambit Kinomescan
T15 sequence (Q9H422 whole entry): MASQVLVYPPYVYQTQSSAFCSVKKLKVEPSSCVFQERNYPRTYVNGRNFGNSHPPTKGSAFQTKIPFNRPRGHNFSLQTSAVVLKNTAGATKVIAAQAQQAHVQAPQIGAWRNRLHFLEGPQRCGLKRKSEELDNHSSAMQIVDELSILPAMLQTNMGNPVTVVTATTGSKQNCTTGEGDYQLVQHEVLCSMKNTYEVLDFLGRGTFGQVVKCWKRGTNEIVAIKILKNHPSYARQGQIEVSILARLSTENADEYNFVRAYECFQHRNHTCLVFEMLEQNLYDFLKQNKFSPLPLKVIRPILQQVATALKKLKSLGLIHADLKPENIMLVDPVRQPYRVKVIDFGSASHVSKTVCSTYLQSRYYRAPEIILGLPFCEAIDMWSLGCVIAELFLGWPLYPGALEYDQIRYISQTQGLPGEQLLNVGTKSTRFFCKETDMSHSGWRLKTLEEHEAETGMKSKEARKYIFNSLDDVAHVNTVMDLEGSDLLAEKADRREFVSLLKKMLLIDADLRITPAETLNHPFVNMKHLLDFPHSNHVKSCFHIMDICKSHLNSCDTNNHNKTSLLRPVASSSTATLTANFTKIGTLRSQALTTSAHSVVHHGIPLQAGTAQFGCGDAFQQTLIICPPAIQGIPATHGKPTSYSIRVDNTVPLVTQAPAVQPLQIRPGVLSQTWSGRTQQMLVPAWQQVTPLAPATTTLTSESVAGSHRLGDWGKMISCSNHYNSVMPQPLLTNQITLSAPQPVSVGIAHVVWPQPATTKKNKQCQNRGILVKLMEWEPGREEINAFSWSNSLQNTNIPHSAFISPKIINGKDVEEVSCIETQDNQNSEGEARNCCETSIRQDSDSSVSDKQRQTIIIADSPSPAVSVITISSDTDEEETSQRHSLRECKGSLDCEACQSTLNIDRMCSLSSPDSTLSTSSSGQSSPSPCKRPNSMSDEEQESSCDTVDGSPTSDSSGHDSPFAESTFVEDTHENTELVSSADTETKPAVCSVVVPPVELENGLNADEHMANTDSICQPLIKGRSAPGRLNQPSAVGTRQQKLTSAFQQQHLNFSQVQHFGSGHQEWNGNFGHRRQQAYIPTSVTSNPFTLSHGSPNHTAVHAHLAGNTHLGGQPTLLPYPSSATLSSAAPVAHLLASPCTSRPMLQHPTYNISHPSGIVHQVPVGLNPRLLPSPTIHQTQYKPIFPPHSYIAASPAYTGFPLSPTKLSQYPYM
How it was run: as §1

PIP5K1C = PIP5K1C (Homo sapiens, UniProt O60331); details: 1 μM
How it was run: as §1

HIPK1 = target: T16, HIPK1 (Homo sapiens, UniProt Q86Z02)
T16 construct: DNA tag (qPCR read-out); purchased Ambit Kinomescan
T16 sequence (Q86Z02 whole entry): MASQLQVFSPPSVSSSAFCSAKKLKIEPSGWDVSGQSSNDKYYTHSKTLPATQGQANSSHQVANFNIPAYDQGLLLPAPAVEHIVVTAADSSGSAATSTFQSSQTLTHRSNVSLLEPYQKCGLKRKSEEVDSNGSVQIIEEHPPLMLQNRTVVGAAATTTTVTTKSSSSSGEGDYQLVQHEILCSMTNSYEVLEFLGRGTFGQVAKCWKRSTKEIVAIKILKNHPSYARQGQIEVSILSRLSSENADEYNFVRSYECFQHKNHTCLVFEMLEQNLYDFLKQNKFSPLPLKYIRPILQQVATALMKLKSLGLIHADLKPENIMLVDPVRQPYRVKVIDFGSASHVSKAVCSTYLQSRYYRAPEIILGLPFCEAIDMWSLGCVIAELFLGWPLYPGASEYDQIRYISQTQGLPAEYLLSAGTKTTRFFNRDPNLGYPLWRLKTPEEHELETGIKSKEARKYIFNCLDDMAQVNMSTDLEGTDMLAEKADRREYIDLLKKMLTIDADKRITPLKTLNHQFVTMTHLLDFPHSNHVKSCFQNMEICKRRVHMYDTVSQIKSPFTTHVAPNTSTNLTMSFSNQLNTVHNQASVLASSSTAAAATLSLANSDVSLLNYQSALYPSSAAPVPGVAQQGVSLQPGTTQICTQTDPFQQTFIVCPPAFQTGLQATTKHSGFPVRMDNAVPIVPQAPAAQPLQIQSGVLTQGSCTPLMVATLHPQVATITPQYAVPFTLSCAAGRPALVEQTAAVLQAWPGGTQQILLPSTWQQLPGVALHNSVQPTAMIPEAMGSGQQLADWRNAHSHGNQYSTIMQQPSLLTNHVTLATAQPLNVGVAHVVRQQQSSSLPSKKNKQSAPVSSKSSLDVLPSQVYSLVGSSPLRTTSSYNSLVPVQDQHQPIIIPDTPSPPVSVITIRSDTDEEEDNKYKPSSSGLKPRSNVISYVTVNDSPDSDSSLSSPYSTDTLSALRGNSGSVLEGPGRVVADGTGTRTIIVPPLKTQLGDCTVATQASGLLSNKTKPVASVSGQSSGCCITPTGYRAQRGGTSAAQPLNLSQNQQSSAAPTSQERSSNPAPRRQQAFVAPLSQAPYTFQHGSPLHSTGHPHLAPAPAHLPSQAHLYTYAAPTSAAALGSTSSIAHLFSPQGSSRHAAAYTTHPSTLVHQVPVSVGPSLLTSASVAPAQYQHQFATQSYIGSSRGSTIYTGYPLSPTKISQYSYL
How it was run: as §1

DDR2 = target: T17, DDR2 (Homo sapiens, UniProt Q16832)
T17 construct: purchased Ambit (KINOMEscan Max panel service)
How it was run: as §1

HIPK4 = target: T18, HIPK4 (Homo sapiens, UniProt Q8NE63)
T18 construct: DNA tag (qPCR read-out)
T18 sequence (Q8NE63 whole entry): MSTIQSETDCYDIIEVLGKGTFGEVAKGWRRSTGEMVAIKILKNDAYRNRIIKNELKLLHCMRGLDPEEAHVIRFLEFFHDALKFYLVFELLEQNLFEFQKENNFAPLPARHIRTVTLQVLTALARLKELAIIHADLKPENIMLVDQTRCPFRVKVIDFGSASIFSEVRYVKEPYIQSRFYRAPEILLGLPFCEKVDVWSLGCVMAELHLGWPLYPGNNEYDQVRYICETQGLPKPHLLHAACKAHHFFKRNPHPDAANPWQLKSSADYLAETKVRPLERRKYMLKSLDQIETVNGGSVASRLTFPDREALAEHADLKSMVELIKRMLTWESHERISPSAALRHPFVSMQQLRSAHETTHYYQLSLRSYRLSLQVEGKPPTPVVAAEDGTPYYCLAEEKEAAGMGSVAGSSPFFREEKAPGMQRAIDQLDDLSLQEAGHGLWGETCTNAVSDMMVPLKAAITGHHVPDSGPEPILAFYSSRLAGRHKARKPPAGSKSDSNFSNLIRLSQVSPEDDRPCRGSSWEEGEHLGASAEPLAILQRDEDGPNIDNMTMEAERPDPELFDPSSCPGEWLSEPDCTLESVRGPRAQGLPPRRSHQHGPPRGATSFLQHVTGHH
How it was run: as §1

MAP3K2 = target: T19, MAP3K2 (Homo sapiens, UniProt Q9Y2U5)
T19 construct: purchased Ambit Kinomescan (contract panel)
How it was run: as §1

SgK110 = target: T20, SgK110 (Homo sapiens, UniProt P0C264)
T20 construct: DNA tag (qPCR read-out)
T20 sequence (P0C264 whole entry): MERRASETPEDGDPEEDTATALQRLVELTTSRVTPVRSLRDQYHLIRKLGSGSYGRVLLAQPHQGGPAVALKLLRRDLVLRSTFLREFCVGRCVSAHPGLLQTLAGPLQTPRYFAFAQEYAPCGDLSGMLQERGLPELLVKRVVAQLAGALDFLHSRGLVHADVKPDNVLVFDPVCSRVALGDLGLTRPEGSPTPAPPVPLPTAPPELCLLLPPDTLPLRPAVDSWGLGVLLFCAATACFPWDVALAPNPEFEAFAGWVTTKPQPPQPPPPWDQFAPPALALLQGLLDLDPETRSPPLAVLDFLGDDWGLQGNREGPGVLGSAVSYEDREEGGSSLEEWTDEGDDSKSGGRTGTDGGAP
How it was run: as §1

ANKK1 = target: T21, ANKK1 (Homo sapiens, UniProt Q8NFD2)
T21 construct: DNA tag (qPCR label); purchased Ambit Kinomescan (contract screening)
How it was run: as §1

INSRR = target: T22, INSRR (Homo sapiens, UniProt P14616)
T22 construct: purchased Ambit Kinomescan (contract panel, KINOMEscan Max)
T22 sequence (P14616 27-1297): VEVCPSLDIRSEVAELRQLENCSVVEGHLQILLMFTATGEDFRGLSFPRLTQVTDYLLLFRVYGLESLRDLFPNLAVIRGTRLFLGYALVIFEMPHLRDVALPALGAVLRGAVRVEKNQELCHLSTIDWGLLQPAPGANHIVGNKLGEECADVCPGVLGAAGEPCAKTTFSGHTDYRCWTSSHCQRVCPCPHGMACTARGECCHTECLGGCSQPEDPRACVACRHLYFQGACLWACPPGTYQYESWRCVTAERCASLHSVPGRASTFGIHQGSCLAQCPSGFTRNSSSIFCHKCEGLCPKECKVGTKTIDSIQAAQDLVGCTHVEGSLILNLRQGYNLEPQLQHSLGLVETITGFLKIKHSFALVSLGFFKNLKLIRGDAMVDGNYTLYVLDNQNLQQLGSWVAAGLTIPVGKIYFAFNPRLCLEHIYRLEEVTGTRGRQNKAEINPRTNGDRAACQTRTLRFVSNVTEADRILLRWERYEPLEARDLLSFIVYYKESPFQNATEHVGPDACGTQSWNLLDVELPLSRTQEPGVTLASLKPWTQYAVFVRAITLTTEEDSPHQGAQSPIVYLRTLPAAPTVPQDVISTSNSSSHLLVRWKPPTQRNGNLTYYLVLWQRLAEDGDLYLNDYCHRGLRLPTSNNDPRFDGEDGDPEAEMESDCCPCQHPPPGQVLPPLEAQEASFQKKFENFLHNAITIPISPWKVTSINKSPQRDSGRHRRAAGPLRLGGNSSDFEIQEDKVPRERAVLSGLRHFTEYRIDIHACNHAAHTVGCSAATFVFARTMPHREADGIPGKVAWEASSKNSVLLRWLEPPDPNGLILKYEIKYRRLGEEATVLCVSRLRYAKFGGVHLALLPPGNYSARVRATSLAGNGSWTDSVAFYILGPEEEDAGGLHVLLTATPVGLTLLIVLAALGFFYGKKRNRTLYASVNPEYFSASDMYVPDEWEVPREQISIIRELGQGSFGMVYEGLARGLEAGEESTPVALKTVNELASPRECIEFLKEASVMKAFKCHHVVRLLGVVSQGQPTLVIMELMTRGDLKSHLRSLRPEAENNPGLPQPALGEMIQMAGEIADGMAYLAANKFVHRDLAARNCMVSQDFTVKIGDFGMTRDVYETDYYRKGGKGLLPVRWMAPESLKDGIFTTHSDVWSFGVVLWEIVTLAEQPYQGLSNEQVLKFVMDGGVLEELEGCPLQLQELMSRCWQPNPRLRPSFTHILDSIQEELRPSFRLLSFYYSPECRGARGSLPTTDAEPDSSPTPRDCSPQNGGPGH
How it was run: as §1

CSNK1A1 = target: T23, CSNK1A1 (Homo sapiens, UniProt P48729)
T23 construct: DNA tag (qPCR read-out)
How it was run: as §1

JNK2 = target: T24, JNK2 (Homo sapiens, UniProt P45984); details: 1 μM
T24 construct: purchased Ambit Kinomescan (contract panel)
How it was run: as §1

TNNI3K = target: T25, TNNI3K (Homo sapiens, UniProt Q59H18)
T25 construct: purchased Ambit Kinomescan (contract screening service)
How it was run: as §1

FGFR3(G697C) = target: T26, FGFR3(G697C) (Homo sapiens, UniProt P22607, G697C)
T26 construct: purchased Ambit Kinomescan (contract panel, KINOMEscan Max)
How it was run: as §1

Question: How did the remaining binding at 1 µM (PIK3CA(E545A)) turn out when `NCCCNc1nc2c(Br)c(Br)c(Br)c(Br)c2[nH]1` [Compound 11, N-(3-aminopropyl)-4,5,6,7-tetrabromo-1H-benzo[d]imidazol-2-amine] was run?
Answer: 96%

Question: And the remaining binding at 1 µM (PRKCI)?
Answer: 100%

Question: And the remaining binding at 1 µM [1]?
Answer: 64%

Question: What about the remaining binding at 1 µM (CDC2L1) of the same molecule?
Answer: 100%

Question: What about the remaining binding at 1 µM (ASK2) of the same molecule?
Answer: 90%

Question: What about the remaining binding at 1 µM (NEK4) of the same molecule?
Answer: 98%

Question: What about the remaining binding at 1 µM (BRAF(V600E)) of the same molecule?
Answer: 96%

Question: And the remaining binding at 1 µM (HIPK2)?
Answer: 0.8%

Question: And the remaining binding at 1 µM (SNRK)?
Answer: 100%

Question: And the remaining binding at 1 µM (FLT3(N841I))?
Answer: 81%

Question: What about the remaining binding at 1 µM (ERBB3) of the same molecule?
Answer: 68%

Question: What about the remaining binding at 1 µM (ADCK4) of the same molecule?
Answer: 87%

Question: And the remaining binding at 1 µM (NDR2)?
Answer: 100%

Question: What about the remaining binding at 1 µM (TRKC) of the same molecule?
Answer: 94%

Question: And the remaining binding at 1 µM (PRKD3)?
Answer: 27%

Question: And the remaining binding at 1 µM (PIK3CG)?
Answer: 96%

Question: And the remaining binding at 1 µM (FGFR3)?
Answer: 84%

Question: And the remaining binding at 1 µM (p38-beta)?
Answer: 95%

Question: And the remaining binding at 1 µM [2]?
Answer: 95%

Question: What about the remaining binding at 1 µM [3] of the same molecule?
Answer: 55%

Question: What about the remaining binding at 1 µM (HIPK3) of the same molecule?
Answer: 1.5%

Question: What about the “% binding” value (PIP5K1C) of the same molecule?
Answer: 95%

Question: And the remaining binding at 1 µM (HIPK1)?
Answer: 2.8%

Question: And the remaining binding at 1 µM (DDR2)?
Answer: 100%

Question: And the remaining binding at 1 µM (HIPK4)?
Answer: 53%

Question: And the remaining binding at 1 µM (MAP3K2)?
Answer: 100%

Question: What about the remaining binding at 1 µM (SgK110) of the same molecule?
Answer: 100%

Question: And the remaining binding at 1 µM (ANKK1)?
Answer: 100%

Question: What about the remaining binding at 1 µM (INSRR) of the same molecule?
Answer: 100%

Question: What about the remaining binding at 1 µM (CSNK1A1) of the same molecule?
Answer: 35%

Question: What about the “% binding” value (JNK2) of the same molecule?
Answer: 100%

Question: What about the remaining binding at 1 µM (TNNI3K) of the same molecule?
Answer: 100%

Question: What about the remaining binding at 1 µM (FGFR3(G697C)) of the same molecule?
Answer: 100%
